From patent publication US7879838B2, “Heteroaryl substituted pyrazinyl-piperazine-piperidines with CXCR3 antagonist activity” (Schering Corporation, priority 2005, dated 2011)

Molecular target: T1, Human CXCR3 (N-delta 4) (Homo sapiens, UniProt P49682)
T1 construct: CD8 leader (N); Flag tag; expressed in transfected cells; membranes prepared
T1 sequence (P49682 5-368 limits assumed): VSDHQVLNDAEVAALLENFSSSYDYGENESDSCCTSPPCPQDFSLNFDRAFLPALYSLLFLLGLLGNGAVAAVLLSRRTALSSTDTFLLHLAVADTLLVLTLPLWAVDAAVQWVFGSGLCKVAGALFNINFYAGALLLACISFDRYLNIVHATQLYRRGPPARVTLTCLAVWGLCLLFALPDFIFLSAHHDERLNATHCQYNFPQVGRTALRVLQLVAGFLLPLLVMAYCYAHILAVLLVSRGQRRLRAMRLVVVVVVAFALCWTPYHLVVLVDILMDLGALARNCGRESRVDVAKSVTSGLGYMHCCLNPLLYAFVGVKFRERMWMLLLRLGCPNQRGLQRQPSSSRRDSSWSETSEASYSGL
Experiment: Human CXCR3 (N-delta 4) scintillation proximity assay (SPA), [125I] IP-10 binding to Ba/F3-hCXCR3 membranes
Settings: IC50 rating; 25 pM [125I] IP-10, membranes of Ba/F3 cells expressing human CXCR3 (N-delta 4)
Method in brief: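 Membranes from Ba/F3 pro-B cells stably expressing Flag-tagged hCXCR3 (N-delta 4), 2 μg per point, prebound 1 hr to WGA SPA beads in HEPES buffer with CaCl2, MgCl2, NaCl, 1.0% BSA. Competition with 25 pM [125I] IP-10 and titrated compounds, 3 hr at room temperature; bound radioligand counted; […].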

IC50 [nM] | Structure (SMILES)
< 25 | CCNC(=O)c1cnc(N2CCN(C3CCN(C(=O)c4ccc(Cl)nc4N)CC3)[C@@H](CC)C2)c(C)n1 [compound 126]
< 25 | CC[C@H]1CN(c2ncc(C(N)=O)nc2C)[C@H](C)CN1C1CCN(C(=O)c2ccc(Cl)nc2N)CC1 [compound 128]
< 25 | CC[C@H]1CN(c2ncc(C(N)=O)nc2C)CCN1C1CCN(C(=O)c2ccc(Cl)nc2N)CC1 [compound 129]
< 25 | CC[C@H]1CN(c2nc(N)c(C(=O)Nc3ccncc3)nc2Cl)CCN1C1CCN(C(=O)c2ccc(Cl)nc2N)CC1 [compound 130]
25 to 100 | CC[C@H]1CN(c2nc(N)c(C(=O)NC)nc2Cl)CCN1C1CCN(C(=O)c2ccc(OC)nc2N)CC1 [compound 131]
25 to 100 | CC[C@H]1CN(c2nc(N)c(C(=O)Nc3cc(C)[nH]n3)nc2Cl)CCN1C1CCN(C(=O)c2ccc(Cl)nc2N)CC1 [compound 132]
25 to 100 | CC[C@H]1CN(c2nc(N)c(C(=O)NCCO)nc2Cl)CCN1C1CCN(C(=O)c2ccc(OC)nc2N)CC1 [compound 133]
25 to 100 | CC[C@H]1CN(c2nc(N)c(C(=O)NNC(C)=O)nc2Cl)CCN1C1CCN(C(=O)c2ccc(Cl)nc2N)CC1 [compound 134]
25 to 100 | CC[C@H]1CN(c2nc(N)c(C(N)=O)nc2Cl)CCN1C1CCN(C(=O)c2ccc(OC)nc2N)CC1 [compound 135]
> 100 | CC[C@H]1CN(c2ncc(C(N)=O)nc2C)CCN1C1CCN(C(=O)c2ccc(C)nc2N)CC1 [compound 136]
> 100 | CC[C@H]1CN(c2nc(N)c(C(=O)N(C)OC)nc2Cl)CCN1C1CCN(C(=O)c2ccc(Cl)nc2N)CC1 [compound 137]
> 100 | CC[C@H]1CN(c2nc(N)c(C(=O)NCCO)nc2Cl)CCN1C1CCN(C(=O)c2ccc(C)nc2Cl)CC1 [compound 138]
> 100 | CC[C@H]1CN(c2nc(N)c(C(=O)NC3CC3)nc2Cl)CCN1C1CCN(C(=O)c2sc(C)nc2C)CC1 [compound 139]
< 25 | CC[C@H]1CN(c2nc(N)c(C(=O)NC)nc2Cl)CCN1C1CCN(Cc2coc3ccc(Cl)cc3c2=O)CC1 [compound 140]
< 25 | CC[C@H]1CN(c2nc(N)c(C(=O)NC3CC3)nc2Cl)CCN1C1CCN(Cc2cc(-c3ccccc3)oc2C)CC1 [compound 141]
> 100 | CC[C@H]1CN(c2nc(N)c(C(N)=O)nc2Cl)CCN1C1CCN(Cc2ccc(Cl)c3nc(C(F)(F)F)[nH]c23)CC1 [compound 142]
> 100 | CC[C@H]1CN(c2nc(N)c(C(N)=O)nc2Cl)CCN1C1CCN(Cc2ccc(Cl)c3[nH]c(=O)[nH]c23)CC1 [compound 143]
< 25 | CC[C@H]1CN(c2nc(N)c(C(=O)NC)nc2Cl)CCN1C1CCN(Cc2coc3cc(C)c(Cl)cc3c2=O)CC1 [compound 144]
> 100 | CC[C@H]1CN(c2nc(N)c(C(=O)NC3CC3)nc2Cl)CCN1C1CCN(Cc2cnc(-c3ccccc3)nc2C)CC1 [compound 145]
25 to 100 | CC[C@H]1CN(c2nc(N)c(C(N)=O)nc2Cl)CCN1C1CCN(C2OC(C(=O)N(C)C)c3cc(Cl)ccc32)CC1 (stereo partly drawn) [compound 147]
> 100 | CC[C@H]1CN(c2nc(N)c(C(=O)NCCO)nc2Cl)CCN1C1CCN(C2CCOc3cc(C#N)ccc32)CC1 (stereo partly drawn) [compound 148]
< 25 | CC[C@H]1CN(c2nc(N)c(C(=O)Nc3ccc(Cl)cc3)nc2Cl)CCN1C1CCN(C(=O)c2ccc(Cl)nc2N)CC1 [compound 149]
25 to 100 | CC[C@H]1CN(c2nc(N)c(C(N)=O)nc2Cl)CCN1C1CCN(C2OC(C(=O)N(C)C)c3cc(Cl)ccc32)CC1 (stereo partly drawn) [compound 151]

IC50 [nM] | Structure (SMILES)
> 100 | CC[C@H]1CN(c2nc(N)c(C(N)=O)nc2Cl)CCN1C1CCN(C(=O)c2ccc(Cl)c3cc[nH]c23)CC1 [compound 152]
> 100 | CC[C@H]1CN(c2nc(N)c(C(N)=O)nc2Cl)CCN1C1CCN(Cc2ccc(Cl)c3nn[nH]c23)CC1 [compound 153]
< 25 | CC[C@H]1CN(c2ncc(C(=O)NC3CC3)nc2C)[C@H](C)CN1C1CCN(C(=O)c2ccc(Cl)nc2N)CC1 [compound 159]
< 25 | CCNC(=O)c1cnc(N2C[C@H](CC)N(C3CCN(C(=O)c4ccc(Cl)nc4N)CC3)C[C@H]2C)c(C)n1 [compound 160]
< 25 | CC[C@H]1CN(c2ncc(C(=O)OC)nc2C)CCN1C1CCN(C(=O)c2ccc(Cl)nc2N)CC1 [compound 161]
< 25 | CC[C@H]1CN(c2nc(N)c(C(N)=O)nc2C)CCN1C1CCN(C(=O)c2ccc(Cl)nc2N)CC1 [compound 162]
< 25 | CC[C@H]1CN(c2ncc(C(=O)NC)nc2C)[C@H](C)CN1C1CCN(C(=O)c2ccc(Cl)nc2N)CC1 [compound 163]
< 25 | CC[C@H]1CN(c2ncc(C(=O)OC)nc2C)[C@H](C)CN1C1CCN(C(=O)c2ccc(Cl)nc2N)CC1 [compound 164]
25 to 100 | CC[C@H]1CN(c2ncc(C(N)=O)nc2C)CCN1C1CCN(C(=O)c2ccc(C(F)(F)F)nc2N)CC1 [compound 165]
< 25 | CC[C@H]1CN(c2nc(N)c(C(N)=O)nc2Cl)[C@H](C)CN1C1CCN(C(=O)c2ccc(Cl)nc2N)CC1 [compound 167]
< 25 | CC[C@H]1CN(c2ncc(C(=O)NC(C)(C)C)nc2C)CCN1C1CCN(C(=O)c2ccc(Cl)nc2N)CC1 [compound 170]
< 25 | CC[C@H]1CN(c2nc(N)c(C(=O)NCCO)nc2C)CCN1C1CCN(C(=O)c2ccc(Cl)nc2N)CC1 [compound 171]
< 25 | CC[C@H]1CN(c2nc(N)c(C(=O)OC)nc2Cl)[C@H](C)CN1C1CCN(C(=O)c2ccc(Cl)nc2N)CC1 [compound 172]
< 25 | CC[C@H]1CN(c2ncc(C(=O)NC)nc2C(F)(F)F)CCN1C1CCN(C(=O)c2ccc(Cl)nc2N)CC1 [compound 173]
< 25 | CC[C@H]1CN(c2ncc(C(=O)NC3(C)CC3)nc2C)[C@H](C)CN1C1CCN(C(=O)c2ccc(Cl)nc2N)CC1 [compound 174]
< 25 | CC[C@H]1CN(c2nc(N)c(C(=O)NC3CC3)nc2C)[C@H](C)CN1C1CCN(C(=O)c2ccc(Cl)nc2N)CC1 [compound 175]
< 25 | CC[C@H]1CN(c2ncc(C(=O)NC3CC3)nc2C)CCN1C1CCN(C(=O)c2ccc(C(F)(F)F)nc2N)CC1 [compound 176]
< 25 | CC[C@H]1CN(c2nc(N)c(C(=O)NC3CC3)nc2Cl)[C@H](C)CN1C1CCN(C(=O)c2ccc(Cl)nc2N)CC1 [compound 177]
< 25 | CC[C@H]1CN(c2ncc(C(=O)NC3CC3)nc2C(F)(F)F)CCN1C1CCN(C(=O)c2ccc(Cl)nc2N)CC1 [compound 178]
< 25 | CC[C@H]1CN(c2ncc(C(=O)NC(C)C)nc2C(F)(F)F)CCN1C1CCN(C(=O)c2ccc(Cl)nc2N)CC1 [compound 179]
< 25 | CC[C@H]1CN(c2ncc(C(=O)NCCO)nc2C(F)(F)F)CCN1C1CCN(C(=O)c2ccc(Cl)nc2N)CC1 [compound 180]
< 25 | CC[C@H]1CN(c2ncc(C(=O)NC3CCC3)nc2C(F)(F)F)CCN1C1CCN(C(=O)c2ccc(Cl)nc2N)CC1 [compound 181]
